{
  "source": "patent US10532065B2",
  "about": "“Bisphosphonic acid derivative and application for same” (NAGASAKI UNIVERSITY, priority 2014, dated 2020)",
  "key": {"[1]": {"test_system": "γδ T cells in peripheral blood mononuclear cells of breast cancer patients", "details": "breast cancer patient PBMC, IL-2, 17 days of culture", "description": "The obtained mononuclear cells were suspended in Yssel medium at 1.8×10^6 cells/ml, and seeded by 1.5 ml in each well of a 24-well plate. Compound 7 was added to each well at a concentration of 1 μM, and cultured at 37° C. under 5% CO2 atmosphere. After one day of culture, IL-2 was added at a concentration of 100 IU/ml, and the cells were cultured in the presence of 100 IU/ml IL-2 thereafter up to day 6, and cultured in the presence of 30 IU/ml IL-2 from day 7. After 14 days of culture, the cells were recovered, and cell surface molecule was analyzed by flow cytometry using labeled anti-CD3 antibody and labeled anti-Vδ2 antibody. As a control, an antibody having the same isotype as anti-CD3 antibody and anti-Vδ2 antibody but irrelevant thereto was used. The ratio (%) of γδ T cells having the Vδ2 region in CD3 cells was determined.\nIn the same manner as in Experimental Example 21 except that mononuclear cells obtained from the peripheral blood of breast cancer patients were used, compound 7 was added, and the cells were cultured at 37° C. under 5% CO2 atmosphere. […] After 17 days of culture, the cells were recovered, and cell surface molecule was analyzed by flow cytometry in the same manner as in Experimental Example 21. Also, the ratio (%) of γδ T cells having the Vδ2 region in CD3 cells was determined."}, "[2]": {"test_system": "various tumor cell lines / γδ T cells", "assay": "TNF-α production induction ability in various tumor cell lines (FIG. 7, 8)", "assay_type": "cell-based", "details": "various tumor cell lines pretreated, γδ T cells (FIG. 7, 8)", "method": "From the results of the above-mentioned Experimental Example, of the bisphosphonic acid POM ester derivatives, since the activity of compound 7 was high, the TNF-α production induction ability of this compound was studied using tumor cells other than EJ-1. In this case, to study effectiveness of POM esterification, using compound 14, which is the corresponding bisphosphonic acid, as a control to be the comparison target. […] Thereto was added a solution (500 μl) of compound 7 obtained by serially diluting 10 mM stock solution 10-fold from 20 μM, or a solution (500 μl) of compound 14 obtained by serially diluting 10 mM stock solution 10-fold from 200 μM, and the cells were suspended well. These conical tubes were stood at 37° C. for 4 hr, and the cells were washed 3 times with 5 ml of culture medium. To these cells was added 500 μl of medium, and the cells were suspended well. […] The content of TNF-α was calculated from the analytical curve of TNF-α. […]\nTherefore, TNF-α production induction ability of compound 7 was studied in more number of tumor cell lines. […] The content of TNF-α was calculated from the analytical curve of TNF-α.\nTo quantitatively study the above-mentioned TNF-α production induction ability, various tumor cell lines were treated with compound 7, reacted with γδ T cells, the produced TNF-α amount was measured, and TNF-α50 value thereof was calculated. […]"}},
  "note": "Entries after “also recorded” stand apart in the source; their conditions may differ.",
  "data": [
    {"smiles": "CC(C)(C)C(=O)OCOP(=O)(OCOC(=O)C(C)(C)C)C(CNc1nccs1)P(=O)(OCOC(=O)C(C)(C)C)OCOC(=O)C(C)(C)C", "note": "[Compound 7, tetrakispivaloyloxymethyl 2-(thiazol-2-ylamino) ethylidene-1,1-bisphosphonate]", "values": [
      {"measurement": "ratio (%) of γδ T cells having the Vδ2 region in CD3 cells (purity)", "setting": "[1]", "result": "not less than 96%"},
      {"measurement": "TNF-α production induction ability (in words)", "setting": "[2]", "result": "TNF-α production induction ability becomes high by POM esterification in any tumor cells; also recorded: efficient induction of TNF-α production from γδ T cells in any cell line"}
    ]}
  ]
}
